Experimental findings from patent US9458153B2, “Dihydroquinolizinones for the treatment and prophylaxis of hepatitis B virus infection” (Hoffmann-La Roche Inc., priority 2014, dated 2016) are described below.

In the experiment the test system is HBsAg. Briefly: HBsAg assay (chemiluminescence immunoassay of secreted HBsAg in HepG2.2.15 culture supernatant). The format is cell-based, HBV. The conditions noted are these: HepG2.2.15 cells, CLIA kit. A digest of the protocol:
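HepG2.2.15 cells, which constitutively express HBV, were seeded in duplicate and treated with three-fold serial compound dilutions at 1% DMSO final. Secreted HBsAg in culture supernatant was measured semi-quantitatively by chemiluminescence immunoassay. IC50 was extrapolated from dose-response curves.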

[1] abbreviates: Hepatitis B virus, HepG2.2.15, HBsAg secretion reduced by 50% vs no drug control.
Setting [2] is: HBsAg secretion reduced by 50% vs no drug control.

Take `CCC1Cc2cc(C)c(C)cc2-c2cc(=O)c(C(=O)O)cn21` (stereo not shown) [Example 112, 6-ethyl-9,10-dimethyl-2-oxo-6,7-dihydrobenzo[a]quinolizine-3-carboxylic acid]: the IC50 under setting [1] is 140 nM.

As for `CCC1Cc2c(ccc(C)c2C)-c2cc(=O)c(C(=O)O)cn21` (stereo not shown) [Example 113, 6-ethyl-8,9-dimethyl-2-oxo-6,7-dihydrobenzo[a]quinolizine-3-carboxylic acid], under setting [1], the IC50 was 640 nM.

`COc1cc2c(cc1OC)-c1cc(=O)c(C(=O)O)cn1C(C(F)(F)F)C2` (stereo not shown) [Example 114, 9,10-dimethoxy-2-oxo-6-(trifluoromethyl)-6,7-dihydrobenzo[a]quinolizine-3-carboxylic acid] displayed a 50% inhibitory concentration (IC50) under setting [1] of 150 nM.

For `CCC1Cc2cc(OCc3ccccc3)c(C)cc2-c2cc(=O)c(C(=O)O)cn21` (stereo not shown) [Example 115, 9-benzyloxy-6-ethyl-10-methyl-2-oxo-6,7-dihydrobenzo[a]quinolizine-3-carboxylic acid], the IC50 under setting [2] is 29 nM.

For `COCCCOc1cc2c(cc1Cl)-c1cc(=O)c(C(=O)O)cn1C(C(C)C)C2` (stereo not shown) [Example 120, 10-chloro-6-isopropyl-9-(3-methoxypropoxy)-2-oxo-6,7-dihydrobenzo[a]quinolizine-3-carboxylic acid], under setting [2], the IC50 worked out at 2 nM.

Under setting [2], `COc1cc2c(cc1OCC(F)(F)F)CC(C(C)C)n1cc(C(=O)O)c(=O)cc1-2` (stereo not shown) [Example 126, 6-isopropyl-10-methoxy-2-oxo-9-(2,2,2-trifluoroethoxy)-6,7-dihydrobenzo[a]quinolizine-3-carboxylic acid] returned an IC50 of 8 nM.

Take `COCCCOc1cc2c(cc1OC)-c1cc(=O)c(C(=O)O)cn1C(C(C)(C)C)C2` (stereo not shown) [Example 131, 6-tert-butyl-10-methoxy-9-(3-methoxypropoxy)-2-oxo-6,7-dihydrobenzo[a]quinolizine-3-carboxylic acid]: the 50% inhibitory concentration (IC50) under setting [2] was determined as 1 nM.

`COCCOc1cc2c(cc1OC)-c1cc(=O)c(C(=O)O)cn1C(C1(C)CC1)C2` (stereo not shown) [Example 134, 10-methoxy-9-(2-methoxyethoxy)-6-(1-methylcyclopropyl)-2-oxo-6,7-dihydrobenzo[a]quinolizine-3-carboxylic acid] had a 50% inhibitory concentration (IC50) under setting [2] of 7 nM.

Under setting [2], `COCCCOc1cc2c(c(Cl)c1F)-c1cc(=O)c(C(=O)O)cn1C(C(C)C)C2` (stereo not shown) [Example 137, 11-chloro-10-fluoro-6-isopropyl-9-(3-methoxypropoxy)-2-oxo-6,7-dihydrobenzo[a]quinolizine-3-carboxylic acid] displayed an IC50 of 15 nM. This IC50 is about 2.1-fold higher than that of the compound before.

As for `COCCCOc1cc2c(cc1F)-c1cc(=O)c(C(=O)O)cn1C(C(C)C)C2` (stereo not shown) [Example 140, 10-fluoro-6-isopropyl-9-(3-methoxypropoxy)-2-oxo-6,7-dihydrobenzo[a]quinolizine-3-carboxylic acid], the midpoint of inhibition under setting [1], the IC50, lay at 31 nM. This lies in the double-digit nanomolar range.

In the case of `COc1cc2c(cc1OCC(F)(F)CO)CC(C(C)(C)C)n1cc(C(=O)O)c(=O)cc1-2` (stereo not shown) [Example 141, 6-tert-butyl-9-(2,2-difluoro-3-hydroxy-propoxy)-10-methoxy-2-oxo-6,7-dihydrobenzo[a]quinolizine-3-carboxylic acid], under setting [1], inhibition was half-maximal at 7 nM (IC50).

As for `COc1cc2c(cc1OCC(C)(C)CO)CC(C(C)C)n1cc(C(=O)O)c(=O)cc1-2` (stereo not shown) [Example 144, 9-(3-hydroxy-2,2-dimethyl-propoxy)-6-isopropyl-10-methoxy-2-oxo-6,7-dihydrobenzo[a]quinolizine-3-carboxylic acid], the half-inhibitory concentration (IC50) under setting [2] was found to be 26 nM.

Turning to `COc1cc2c(cc1OCCCO)CC(C(C)C)n1cc(C(=O)O)c(=O)cc1-2` (stereo not shown) [Example 147, 9-(3-hydroxypropoxy)-6-isopropyl-10-methoxy-2-oxo-6,7-dihydrobenzo[a]quinolizine-3-carboxylic acid], the half-maximal inhibitory concentration (IC50) under setting [1] amounted to 30 nM.

For `COCCCCOc1cc2c(cc1OC)-c1cc(=O)c(C(=O)O)cn1C(C(C)C)C2` (stereo not shown) [Example 148, 6-isopropyl-10-methoxy-9-(4-methoxybutoxy)-2-oxo-6,7-dihydrobenzo[a]quinolizine-3-carboxylic acid], the 50% inhibitory concentration (IC50) under setting [1] was 5 nM.

`COc1cc2c(cc1OCC(C)(C)CO)CC(C(C)(C)C)n1cc(C(=O)O)c(=O)cc1-2` (stereo not shown) [Example 149, 6-tert-butyl-9-(3-hydroxy-2,2-dimethyl-propoxy)-10-methoxy-2-oxo-6,7-dihydrobenzo[a]quinolizine-3-carboxylic acid] yielded a concentration for half-maximal inhibition (IC50) under setting [2] of 2 nM.

Consider `COc1cc2c(cc1OCCCCCO)CC(C(C)(C)C)n1cc(C(=O)O)c(=O)cc1-2` (stereo not shown) [Example 152, 6-tert-butyl-9-(5-hydroxypentoxy)-10-methoxy-2-oxo-6,7-dihydrobenzo[a]quinolizine-3-carboxylic acid], for which inhibition under setting [2] was half-maximal at 2 nM (IC50).

As for `COc1cc2c(cc1OCCCCCCO)CC(C(C)(C)C)n1cc(C(=O)O)c(=O)cc1-2` (stereo not shown) [Example 155, 6-tert-butyl-9-(6-hydroxyhexoxy)-10-methoxy-2-oxo-6,7-dihydrobenzo[a]quinolizine-3-carboxylic acid], under setting [2], the IC50 turned out to be 2 nM.

`COc1cc2c(cc1OCCCCO)CC(C(C)(C)C)n1cc(C(=O)O)c(=O)cc1-2` (stereo not shown) [Example 158, 6-tert-butyl-9-(4-hydroxybutoxy)-10-methoxy-2-oxo-6,7-dihydrobenzo[a]quinolizine-3-carboxylic acid] returned a 50% inhibitory concentration (IC50) under setting [1] of 3 nM.

Under setting [1], `COc1cc2c(cc1OCC#CCO)CC(C(C)(C)C)n1cc(C(=O)O)c(=O)cc1-2` (stereo not shown) [Example 159, 6-tert-butyl-9-(4-hydroxybut-2-ynoxy)-10-methoxy-2-oxo-6,7-dihydrobenzo[a]quinolizine-3-carboxylic acid] came in with an IC50 of 66 nM.

Turning to `COc1cc2c(cc1OCCCCCCN)CC(C(C)(C)C)n1cc(C(=O)O)c(=O)cc1-2` (stereo not shown) [Example 160, 9-(6-aminohexoxy)-6-tert-butyl-10-methoxy-2-oxo-6,7-dihydrobenzo[a]quinolizine-3-carboxylic acid], the IC50 under setting [2] worked out at 18 nM.

`COc1cc2c(cc1OCCCCCCNC(=O)OC(C)(C)C)CC(C(C)(C)C)n1cc(C(=O)O)c(=O)cc1-2` (stereo not shown) [Example 161, 9-[6-(tert-butoxycarbonylamino)hexoxy]-6-tert-butyl-10-methoxy-2-oxo-6,7-dihydrobenzo[a]quinolizine-3-carboxylic acid] had an IC50 under setting [2] of 9 nM.

Under setting [2], `COc1cc2c(cc1OCCCCCCCCN)CC(C(C)(C)C)n1cc(C(=O)O)c(=O)cc1-2` (stereo not shown) [Example 166, 9-(8-aminooctoxy)-6-tert-butyl-10-methoxy-2-oxo-6,7-dihydrobenzo[a]quinolizine-3-carboxylic acid] yielded an IC50 of 6 nM.

`COc1cc2c(cc1OCCCCCCCCNC(=O)OC(C)(C)C)CC(C(C)(C)C)n1cc(C(=O)O)c(=O)cc1-2` (stereo not shown) [Example 167, 9-[8-(tert-butoxycarbonylamino)octoxy]-6-tert-butyl-10-methoxy-2-oxo-6,7-dihydrobenzo[a]quinolizine-3-carboxylic acid]: the IC50 under setting [2] is 11 nM.

Under setting [1], `COc1cc2c(cc1OCCCCCNC(=O)OC(C)(C)C)CC(C(C)(C)C)n1cc(C(=O)O)c(=O)cc1-2` (stereo not shown) [Example 172, 9-[5-(tert-butoxycarbonylamino)pentoxy]-6-tert-butyl-10-methoxy-2-oxo-6,7-dihydrobenzo[a]quinolizine-3-carboxylic acid] registered an IC50 of 2 nM.

For the compound `COc1cc2c(cc1OCCCCCNC(C)=O)CC(C(C)(C)C)n1cc(C(=O)O)c(=O)cc1-2` (stereo not shown) [Example 175, 9-(5-acetamidopentoxy)-6-tert-butyl-10-methoxy-2-oxo-6,7-dihydrobenzo[a]quinolizine-3-carboxylic acid], the IC50 under setting [1] was 33 nM.
